In this test the target is T1, Human NaV1.8 (Homo sapiens, UniProt Q9Y5Y9).
T1 construct: expressed in transfected cells
Kind of test: VIPR assay for NaV1.8 compounds (FRET membrane potential). It is filed as cell-based. The following applies: Human NaV1.8 HEK293 expressing cell line, channels held open with deltamethrin. An excerpt: The ability of the pyridine derivatives of the formula (I) to inhibit the NaV1.8 channel may be measured using the assay described below.
VIPR Assay for NaV1.8 compounds
This screen is used to determine the effects of compounds on tetrodotoxin-resistant (TTX-R) sodium channels in Human NaV1.8— (HEK293) expressing cell line, utilising the technology of Aurora's fluorescent Voltage/Ion Probe Reader (VIPR). This experiment is based on FRET (Fluorescence Resonance Energy Transfer) and uses two fluorescent molecules. The first molecule, Oxonol (DiSBAC2(3)), is a highly fluorescent, negatively charged, hydrophobic ion that “senses” the trans-membrane electrical potential. In response to changes in membrane potential, it can rapidly redistribute between two binding sites on opposite sides of the plasma membrane. The voltage dependent redistribution is transduced into a ratiometric fluorescent readout via a second fluorescent molecule (Coumarin (CC2-DMPE)) that binds specifically to one face of the plasma membrane and functions as a FRET partner to the mobile voltage-sensing ion. To enable the assay to work, the channels have to be pharmacologically held in the open state. This is achieved by treating the cells with either deltamethrin (for NaV1.8) or veratridine (for the SHSY-5Y assay for TTX-S channels).
Human NaV1.8 cells are grown in T225 flasks, in a 5% CO2 humidified incubator to about 70% confluence. Media composition consists of DMEM/F-12, 10% FCS and 300 μg/ml Geneticine. They are split using cell dissociation fluid 1:5 to 1:20, depending on scheduling needs, and grown for 3-4 days before the next split.
Plate-out HEK-NaV1.8 cells (100 μl per well) into poly-D-lysine coated plates prior to experimentation as follows:—24 hours @ 3.5×10^4 cells/well (3.5×10^5 cells/ml) or using the technology of Select.
1. Equilibrate buffers at room temperature for 2 hours or at 37° C. for 30 minutes prior to experimentation. 2. Prepare Coumarin dye (see below) and store in dark. Prime the plate washer with Na^+ Free buffer and wash cells twice, Note: Plate washer deposits ˜30 μl residual buffer per well. Add 100 μL Coumarin (CC2-DMPE) solution (see below) to cells and incubate for 45 minutes at room temperature avoiding bright light. 3. Prepare Oxonol (DiSBAC2(3)) dye (see below): 4. Aspirate off Coumarin solution from the cells by washing in Na^+ Free buffer. 5. Add 30 μl compound then add 30 μl Oxonol solution to the cells and incubate for 45 minutes at room temperature in the dark (total well volume ˜90 μl). 6. Once the incubation is complete, the cells are ready to be assayed using the VIPR for sodium addback membrane potential.
The data was analyzed and reported as normalised ratios of intensities measured in the 460 nm and 580 nm channels. The process of calculating these ratios was performed as follows. An additional plate contained control solution with the same DisBAC2(3) concentrations as used in the cell plates, however no cells were included in the background plate. Intensity values at each wavelength were averaged for sample points 5-7 (initial) and 44-49 (final). These averages were subtracted from intensity values averaged over the same time periods in all assay wells. The initial ratio obtained from samples 3-8 (Ri) and the final ratio obtained from samples 45-50 (Rf) are defined as: […]
Final data are normalised to the starting ratio of each well and reported as Rf/Ri. This analysis is performed using a computerised specific programme designed for VIPR generated data. Rf/Ri ratio values are plotted using Excel Labstats (curve fit) or analysed via ECADA to determine an IC50 value for each compound.

T1 sequence (Q9Y5Y9 whole entry): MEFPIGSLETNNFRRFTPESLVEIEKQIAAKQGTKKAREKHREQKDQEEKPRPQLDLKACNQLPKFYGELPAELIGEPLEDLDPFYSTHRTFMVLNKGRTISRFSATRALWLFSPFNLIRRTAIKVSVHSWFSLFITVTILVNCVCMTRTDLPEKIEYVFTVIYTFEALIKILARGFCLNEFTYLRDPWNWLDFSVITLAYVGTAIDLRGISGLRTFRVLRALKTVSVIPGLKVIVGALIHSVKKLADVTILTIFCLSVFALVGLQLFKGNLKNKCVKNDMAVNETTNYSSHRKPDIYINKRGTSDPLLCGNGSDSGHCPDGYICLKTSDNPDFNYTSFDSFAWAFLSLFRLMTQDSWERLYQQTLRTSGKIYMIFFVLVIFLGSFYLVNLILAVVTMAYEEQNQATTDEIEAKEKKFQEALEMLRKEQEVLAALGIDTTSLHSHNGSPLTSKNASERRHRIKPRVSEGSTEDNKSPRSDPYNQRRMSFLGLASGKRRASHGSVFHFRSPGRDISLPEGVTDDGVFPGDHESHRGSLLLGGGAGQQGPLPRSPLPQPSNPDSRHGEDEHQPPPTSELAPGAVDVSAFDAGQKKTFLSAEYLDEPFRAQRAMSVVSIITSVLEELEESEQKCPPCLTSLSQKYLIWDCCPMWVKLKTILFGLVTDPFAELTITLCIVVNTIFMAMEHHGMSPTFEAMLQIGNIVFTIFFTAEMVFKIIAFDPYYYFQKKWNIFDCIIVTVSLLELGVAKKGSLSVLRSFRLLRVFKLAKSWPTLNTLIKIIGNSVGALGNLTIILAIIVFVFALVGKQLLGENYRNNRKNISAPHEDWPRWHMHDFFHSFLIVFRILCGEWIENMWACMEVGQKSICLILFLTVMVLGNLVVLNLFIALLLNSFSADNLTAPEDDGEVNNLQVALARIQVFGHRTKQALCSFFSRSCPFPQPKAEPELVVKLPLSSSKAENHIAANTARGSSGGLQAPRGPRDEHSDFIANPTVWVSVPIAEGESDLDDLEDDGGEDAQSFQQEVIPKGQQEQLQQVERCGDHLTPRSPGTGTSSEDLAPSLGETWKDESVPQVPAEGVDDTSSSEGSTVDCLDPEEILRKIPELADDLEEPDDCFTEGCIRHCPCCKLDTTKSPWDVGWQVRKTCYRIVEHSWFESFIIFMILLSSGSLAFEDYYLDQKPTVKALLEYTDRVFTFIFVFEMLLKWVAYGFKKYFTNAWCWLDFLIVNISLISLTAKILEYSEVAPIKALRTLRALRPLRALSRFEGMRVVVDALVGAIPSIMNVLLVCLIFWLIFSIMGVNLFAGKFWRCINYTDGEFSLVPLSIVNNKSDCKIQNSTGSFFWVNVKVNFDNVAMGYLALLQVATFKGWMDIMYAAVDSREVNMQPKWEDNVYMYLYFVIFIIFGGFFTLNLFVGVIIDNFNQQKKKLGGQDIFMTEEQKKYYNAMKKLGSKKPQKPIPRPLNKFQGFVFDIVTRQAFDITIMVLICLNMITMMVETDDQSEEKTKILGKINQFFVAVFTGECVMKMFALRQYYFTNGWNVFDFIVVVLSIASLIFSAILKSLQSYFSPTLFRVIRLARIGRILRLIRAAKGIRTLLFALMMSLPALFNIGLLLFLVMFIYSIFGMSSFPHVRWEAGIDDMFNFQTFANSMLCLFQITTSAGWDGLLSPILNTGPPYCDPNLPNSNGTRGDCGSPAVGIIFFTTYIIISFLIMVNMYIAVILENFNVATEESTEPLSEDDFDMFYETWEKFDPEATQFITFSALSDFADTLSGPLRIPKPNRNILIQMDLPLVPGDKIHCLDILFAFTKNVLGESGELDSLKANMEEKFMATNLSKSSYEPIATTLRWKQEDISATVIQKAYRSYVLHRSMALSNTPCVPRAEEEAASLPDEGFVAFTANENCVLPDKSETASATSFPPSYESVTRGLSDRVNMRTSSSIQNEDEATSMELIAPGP

As for `CNC(=S)c1ccc(-c2cc(Cl)cc(Cl)c2Cl)c(N)n1` [Example 1, 6-Amino-5-(2,3,5-trichloro-phenyl)-pyridine-2-carbothioic acid methylamide], the IC50 stood at 2.93 µM. In other words, the single-digit micromolar range.

`CN/C(=N\C#N)c1ccc(-c2cc(Cl)cc(Cl)c2Cl)c(N)n1` [Example 2, 6-Amino-N′-cyano-N-methyl-5-(2,3,5-trichlorophenyl)pyridine-2-carboximidamide] showed an IC50 of 1.63 µM.

Turning to `C/N=C(\NC)c1ccc(-c2cc(Cl)cc(Cl)c2Cl)c(N)n1` [Example 3, 6-Amino-N,N′-dimethyl-5-(2,3,5-trichloro-phenyl)-pyridine-2-carboxamidine], it took 1.82 µM to reach half-maximal inhibition (IC50). This IC50 and that of the compound before are within 1.5-fold of each other.

For `C/N=C(/c1ccc(-c2cc(Cl)cc(Cl)c2Cl)c(N)n1)N1CCOCC1` [Example 4, 6-(Methylimino-morpholin-4-yl-methyl)-3-(2,3,5-trichloro-phenyl)-pyridin-2-ylamine], the IC50 was 4.58 µM.

In turn, `CC/N=C(\NCC)c1ccc(-c2cc(Cl)cc(Cl)c2Cl)c(N)n1` [Example 5, 6-Amino-N,N′-diethyl-5-(2,3,5-trichloro-phenyl)-pyridine-2-carboxamidine] came in with a 50% inhibitory concentration (IC50) of 2.94 µM.

Compound `C/N=C(\NCC(F)(F)F)c1ccc(-c2cc(Cl)cc(Cl)c2Cl)c(N)n1` [Example 6, 6-Amino-N-methyl-5-(2,3,5-trichloro-phenyl)-N′-(2,2,2-trifluoro-ethyl)-pyridine-2-carboxamidine] registered an IC50 of 1.33 µM. This IC50 is about 2.2-fold lower than that of the compound before.

With `CNC(=N)c1ccc(-c2cc(Cl)cc(Cl)c2Cl)c(N)n1` [Example 7, 6-Amino-N-methyl-5-(2,3,5-trichloro-phenyl)-pyridine-2-carboxamidine], the midpoint of inhibition, the IC50, lay at 2.4 µM.

For orientation: IC50 means the point on the concentration scale where inhibition reaches its midpoint. Higher therefore signals weaker potency in that assay.
